Target: PIK3CG (human) (UniProt P48736)
Assay: Inhibition of PIK3CG Kinase Activity

Chain of PIK3CG (human) (P48736 whole entry, looked up): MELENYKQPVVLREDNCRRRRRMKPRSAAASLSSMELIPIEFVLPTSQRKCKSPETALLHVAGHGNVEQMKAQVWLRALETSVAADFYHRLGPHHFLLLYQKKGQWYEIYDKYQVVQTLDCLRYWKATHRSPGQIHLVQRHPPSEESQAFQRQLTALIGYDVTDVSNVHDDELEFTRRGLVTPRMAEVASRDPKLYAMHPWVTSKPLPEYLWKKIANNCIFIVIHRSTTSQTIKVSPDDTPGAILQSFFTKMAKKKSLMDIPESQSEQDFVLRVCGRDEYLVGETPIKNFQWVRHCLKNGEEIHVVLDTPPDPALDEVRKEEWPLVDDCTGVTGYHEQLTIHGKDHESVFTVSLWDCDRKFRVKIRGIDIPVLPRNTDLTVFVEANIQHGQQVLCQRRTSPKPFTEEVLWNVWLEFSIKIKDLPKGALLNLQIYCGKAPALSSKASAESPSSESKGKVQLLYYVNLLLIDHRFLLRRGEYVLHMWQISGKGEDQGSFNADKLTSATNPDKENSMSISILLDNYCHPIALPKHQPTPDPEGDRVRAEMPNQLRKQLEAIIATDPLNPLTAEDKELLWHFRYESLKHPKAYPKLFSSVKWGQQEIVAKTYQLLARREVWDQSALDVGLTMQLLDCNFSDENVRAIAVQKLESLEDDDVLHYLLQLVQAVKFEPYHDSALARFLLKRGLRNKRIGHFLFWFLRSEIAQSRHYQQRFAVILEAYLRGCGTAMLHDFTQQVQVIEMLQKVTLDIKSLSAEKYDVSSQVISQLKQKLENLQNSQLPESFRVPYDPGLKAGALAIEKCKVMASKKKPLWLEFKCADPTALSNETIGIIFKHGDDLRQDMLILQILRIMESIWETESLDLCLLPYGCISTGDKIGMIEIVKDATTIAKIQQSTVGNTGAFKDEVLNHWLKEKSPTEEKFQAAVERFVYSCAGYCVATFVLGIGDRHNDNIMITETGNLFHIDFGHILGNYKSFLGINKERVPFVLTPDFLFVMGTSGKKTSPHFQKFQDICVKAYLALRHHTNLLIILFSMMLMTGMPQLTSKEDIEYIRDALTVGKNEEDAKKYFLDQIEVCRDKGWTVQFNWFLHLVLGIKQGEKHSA

COc1ccc(C(=O)O)cc1-c1nn(C)c2nc(N)ncc12
IC50: < 2 µM

Cn1nc(-c2cc(Cl)c(O)cc2O)c2cnc(N)nc21
IC50: < 2 µM

COc1c(F)cc(F)cc1-c1nn(C)c2nc(N)ncc12
IC50: < 2 µM

COc1ccc(Br)cc1-c1nn(C)c2nc(N)ncc12
IC50: < 2 µM

Cn1nc(-c2cc(F)cc(OCC(=O)O)c2)c2cnc(N)nc21
IC50: < 2 µM

Cn1nc(-c2ccc(OCc3ccccc3)c(F)c2)c2cnc(N)nc21
IC50: < 2 µM

Cn1nc(-c2ccc3c(c2)OCCO3)c2cnc(N)nc21
IC50: < 2 µM

Cn1nc(-c2cccc(O)c2)c2cnc(N)nc21
IC50: < 2 µM
